Assay results: patent US20190151304A1, “METHODS AND PHARMACEUTICAL COMPOSITIONS FOR THE TREATMENT OF AUTOIMMUNE INFLAMMATORY” (INSERM (INSTITUT NATIONAL DE LA SANTÉ ET DE LA RECHERCJAE …, priority 2016, published 2019)
No end group written: not given here.

Assays:
Type in all cases: cell-based
[1] = system: colon adenocarcinoma HT-29 cells; experiment: Apoptosis assay (annexin V-PE binding, Guava nexin kit) in HT-29 cells; conditions: 48 h; orexin-A 1 μM, SB408124 various concentrations
Method: FIG. 13: Effect of orexin-A and SB408124 antagonist on apoptosis in OX1R expressing colon adenocarcinoma cells, HT-29. HT-29 cells were challenged with 1 μM orexin-A or various concentration of SB408124 for 48 h. Apoptosis was measured by determination of annexin V-PE binding, and results are expressed as the percentage of apoptotic cells. Results are means±SE of three experiments. ***P<0.001.
(§1) Cells growth determination and apoptosis assay: HEK-OX1R cells or colon adenocarcinoma HT-29 cells were seeded, grown and maintained at 37° C. in a humidified 5% CO2/air incubator. After 24 hr culture, cells were treated with or without Orexin-A peptide or SB408124 antagonist, previously dissolved in DMSO, to be tested at the concentration indicated in the figure legends. After 48 hr of treatment, adherent cells were harvested by Trip1E (Life Technologies, Saint Aubin, France) and manually counted. Apoptosis was determined using the Guava PCA system and the Guava nexin kit.

[2] = system: colon adenocarcinoma HT-29 cells; experiment: Cells growth determination, HT-29 cells; conditions: 48 hr; OxA 0.1 μM, SB408124 increasing concentrations
Method: FIG. 12: Determination of the inhibition of cellular growth of HEK-OX1R cells and colon adenocarcinoma cells (HT-29) induced by 0.1 μM of OxA or various concentrations of SB408124 antagonist. HEK-OX1R cells (black column) and HT-29 cells (white column) were incubated with 0.1 μM of OxA and indicated increasing concentration of SB408124, and cells were counted after 48 hr incubation. Results are expressed as the percentage of total viable cells.
as §1

[3] = biological target: T1, OX1R (Homo sapiens, UniProt O43613, A280G); experiment: Ca2+ mobilization assay in HEK-OX1R cells (FluoForte); conditions: 1 μM
T1 construct: HEK cells expressing recombinant native OX1R (HEK-OX1R); expressed in transfected cells; host or cells: HEK cells (HEK-OX1R)
T1 sequence (O43613 1-425 A280G): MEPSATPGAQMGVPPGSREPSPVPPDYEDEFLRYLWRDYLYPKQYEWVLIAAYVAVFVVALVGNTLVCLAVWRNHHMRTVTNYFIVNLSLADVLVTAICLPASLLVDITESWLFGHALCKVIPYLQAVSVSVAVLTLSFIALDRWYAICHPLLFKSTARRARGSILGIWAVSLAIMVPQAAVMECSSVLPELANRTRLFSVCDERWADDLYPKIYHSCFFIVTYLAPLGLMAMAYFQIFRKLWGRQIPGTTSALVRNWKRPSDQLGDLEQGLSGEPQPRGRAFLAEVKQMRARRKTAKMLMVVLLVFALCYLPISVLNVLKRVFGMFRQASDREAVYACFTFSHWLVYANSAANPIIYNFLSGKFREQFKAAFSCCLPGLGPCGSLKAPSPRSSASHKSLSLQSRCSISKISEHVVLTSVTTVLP

Substance: OxA: neuropeptide, endogenous ligand of OX1R and OX2R, with two disulphide bridges (QPLPDCCRQKTCSCRLYELLHGAGNHAAGILTL; disulfide (positions not given here); ends not checked; also: two disulphide bridges, pairing not given here; UniProt O43612 34-66, looked up)
- Apoptosis in HT-29 cells [1]: induced an apoptotic effect
- Inhibition of cellular growth of HT-29 cells [2]: strong inhibition
- Ca2+ mobilization induced in HEK-OX1R cells [3]: large and transient
